This note sets out measurements from patent US9833497B2, “Human originated EGF domain proteins and use of the same” (CHENGDU SOURCEBIO LIMITED-LIABILITY COMPANY, priority 2013, dated 2017).

The test system of one experiment is E. coli DH5α. In words: Antibacterial activity: MIC and growth curve against E. coli DH5α in 96-well plate. As to conditions: for MIC: minimal inhibitory concentration against E. coli DH5α, 96-well plate, 37° C., judged after 8 h. Type of experiment: cell-based. Put shortly:
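Log-phase bacteria (OD600 ~0.5) resuspended in LB at 5×10^5 CFU/mL, exposed to recombinant protein at 50, 25, 12.5 μg/mL final in triplicate, 37 °C shaking at 175 rpm. OD600 read every 30 min; MIC is lowest concentration showing no growth.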

A further experiment concerns E. coli BL21. The experiment can be described thus: MIC against Gram-negative bacteria: E. coli BL21. It is filed as cell-based. To be noted: E. coli BL21, 5×10^5 CFU/mL. Put shortly:
(§1)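 Growth inhibition by human EGF domain proteins was scored in LB liquid culture seeded at 5×10^5 CFU/mL. Protein was applied as a two-fold dilution series in triplicate, with shaking incubation at 37° C; MIC is the lowest concentration giving no growth.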

Another experiment relates to Pseudomonas aeruginosa. In words: MIC against Gram-negative bacteria: Pseudomonas aeruginosa. It is filed as cell-based. As to conditions: 5×10^5 CFU/mL. Put shortly: as §1
A further experiment concerns Klebsiella pneumonia. The experiment can be described thus: MIC against Gram-negative bacteria: Klebsiella pneumonia. It is filed as cell-based. To be noted: 5×10^5 CFU/mL. Put shortly:
as §1

The next experiment has as its system Enterobacter cloacae. In words: MIC against Gram-negative bacteria: Enterobacter cloacae. Type of experiment: cell-based. As to conditions: 5×10^5 CFU/mL. Put shortly: as §1
The subject of the next experiment is Aeromonas hydrophila. In words: MIC against Gram-negative bacteria: Aeromonas hydrophila. It is filed as cell-based. To be noted: 5×10^5 CFU/mL. Put shortly:
as §1

In a further experiment the test system is Citrobacter diversus. The experiment can be described thus: MIC against Gram-negative bacteria: Citrobacter diversus. Type of experiment: cell-based. As to conditions: 5×10^5 CFU/mL. The method, boiled down:
as §1

Another experiment relates to Moraxella catarrhalis. In words: MIC against Gram-negative bacteria: Moraxella catarrhalis. As to conditions: 5×10^5 CFU/mL. Type of experiment: cell-based. Put shortly: as §1
Another experiment relates to Proteus mirabilis. In words: MIC against Gram-negative bacteria: Proteus mirabilis. Type of experiment: cell-based. As to conditions: 5×10^5 CFU/mL. Put shortly: as §1
For a further experiment, the system named is Proteus vulgaris. In words: MIC against Gram-negative bacteria: Proteus vulgaris. Type of experiment: cell-based. As to conditions: 5×10^5 CFU/mL. The method, boiled down:
as §1

The next experiment deals with Serratia marcescens. The experiment can be described thus: MIC against Gram-negative bacteria: Serratia marcescens. To be noted: 5×10^5 CFU/mL. It is filed as cell-based. The method, boiled down: as §1
The nature of experiment [1]: Silver staining detection of endotoxin (LPS) hydrolysis. Type of experiment: biochemical. As to conditions: E. coli EH100 LPS incubated overnight with protein, FIG. 28. On the procedure:
1. The E. coli EH100 LPS (Sigma) samples were respectively incubated with the obtained human-originated EGF domain proteins (PRT1 to PRT1498 in Table 1) such as the recombination protein hF VII-EGF1, etc.; and the control group was the LPS sample incubated with TB S buffer. The incubation lasted overnight. Then, the centrifugation was performed to collect the pellet.
2. The 1×loading buffer for LPS (0.05 mol/L Tris-HCl, containing 10 g/L SDS, 100 g/L sucrose, 0.5% β-mercaptoethanol, 10 mg/L Bromophenol Blue, pH 6.8) was mixed with the sample of the treated pellet and incubated on a metal bath at 100° C. for 5 min.
3. 15% separating gel (containing 4 mol/L urea, Bio-Rad with a thickness of 1.0 mm, the detailed composition as follows: 1.15 mL of deionized water, 2.5 mL of 30% acrylamide, 1.3 mL of 1.5 mol/L Tris-HCl (pH 8.8, containing 10% SDS), 50 μl of 10% ammonium persulfate, 4 μl of TEMED) was mixed well and prepared. The top of the separating gel was overlaid with water.
4. 5% stacking gel was prepared as follows: 1.42 mL of deionized water, 0.33 mL of 30% acrylamide, 0.25 mL of 1 mol/L Tris-HCl (pH 6.8, containing 10% SDS), 20 μL of 10% ammonium persulfate, 2 μL of TEMED) were mixed well and poured. A ten-well comb was quickly inserted.
5. After the gel was prepared, the samples were loaded. Then, the gel was run at a voltage of 120 V to separate the samples. […]

In general, MIC refers to the lowest concentration that inhibits growth of the organism. With “hF VII-EGF1: human coagulation factor VII-EGF1 domain protein, molecular weight about 3.9 kD, recombinant, released from RFP fusion by rTEV (DGDQCASSPCQNGGSCKDQLQSYICFCLPAFEGRNCE; listed as Homo sapiens)”, in the experiment with E. coli DH5α (E. coli DH5α, 5×10^5 CFU/mL, after 8 h of cultivation at 37° C.), the “MIC (minimal inhibitory concentration)” value was 12.5 µg/mL. Further, the “inhibitory effect on the growth of E. coli DH5α” value in the experiment on E. coli DH5α (growth curve (OD 600 nm), FIG. 27 / Table 2) was “significant inhibitory effect”. The same substance returned an MIC against E. coli DH5α (5×10^5 CFU/mL) of 12.5 µg/mL. Moreover, the “MIC (μg/mL) E. coli BL21” value against E. coli BL21 (96-well plate, 37° C., 10 h) stood at 12.5 µg/mL. Moreover, in the experiment with Pseudomonas aeruginosa (Pseudomonas aeruginosa, 96-well plate, 37° C., 10 h), the “MIC (μg/mL) P. aeruginosa” value was determined as 25 µg/mL. Moreover, the “MIC (μg/mL) K. pneumonia” value in the experiment with Klebsiella pneumonia (Klebsiella pneumonia, 96-well plate, 37° C., 10 h) was determined as 25 µg/mL. For the same substance, the “MIC (μg/mL) E. cloacae” value against Enterobacter cloacae (Enterobacter cloacae, 96-well plate, 37° C., 10 h) worked out at 12.5 µg/mL. Also, the “MIC (μg/mL) A. hydrophila” value with Aeromonas hydrophila (Aeromonas hydrophila, 96-well plate, 37° C., 10 h) came to 12.5 µg/mL. Moreover, the “MIC (μg/mL) C. diversus” value in the experiment on Citrobacter diversus (Citrobacter diversus, 96-well plate, 37° C., 10 h) came out at 12.5 µg/mL. Further, in the experiment on Moraxella catarrhalis (Moraxella catarrhalis, 96-well plate, 37° C., 10 h), the “MIC (μg/mL) M. catarrhalis” value was 25 µg/mL. In addition, the “MIC (μg/mL) P. mirabilis” value in the experiment with Proteus mirabilis (Proteus mirabilis, 96-well plate, 37° C., 10 h) worked out at 25 µg/mL. Besides, in the experiment on Proteus vulgaris (Proteus vulgaris, 96-well plate, 37° C., 10 h), the “MIC (μg/mL) P. vulgaris” value turned out to be 12.5 µg/mL. Also, the “MIC (μg/mL) S. marcescens” value in the experiment with Serratia marcescens (Serratia marcescens, 96-well plate, 37° C., 10 h) was 12.5 µg/mL. In addition, the “hydrolysis of LPS (LPS band in silver staining)” value in experiment [1] is “eliminates the majority of LPS”.

For “PRT436 (DINECEHRNHTCNLQQTCYNLQGGFKCIDPIRCEEPYLRISDNRCM; listed as Homo sapiens)”, the MIC with E. coli DH5α (5×10^5 CFU/mL) is 12.5 µg/mL; against E. coli BL21 (10 h cultivation at 37° C.) it was 25 µg/mL; in the experiment with Pseudomonas aeruginosa (P. aeruginosa, 10 h cultivation at 37° C.) it was 50 µg/mL; against Klebsiella pneumonia (K. pneumonia, 10 h cultivation at 37° C.), 25 µg/mL; against Enterobacter cloacae (E. cloacae, 10 h cultivation at 37° C.), 12.5 µg/mL; against Aeromonas hydrophila (A. hydrophila, 10 h cultivation at 37° C.), 50 µg/mL. In addition, the MIC against Citrobacter diversus (C. diversus, 10 h cultivation at 37° C.) is 12.5 µg/mL; against Moraxella catarrhalis (M. catarrhalis, 10 h cultivation at 37° C.), 50 µg/mL; against Proteus mirabilis (P. mirabilis, 10 h cultivation at 37° C.), 12.5 µg/mL; against Proteus vulgaris (P. vulgaris, 10 h cultivation at 37° C.), 50 µg/mL; in the experiment with Serratia marcescens (S. marcescens, 10 h cultivation at 37° C.) it was 100 µg/mL.
